Laboratory results as given in patent publication US7795254B2, “Benzomorpholine derivatives and methods of use” (Amgen Inc., priority 2007, dated 2010).
pIC50: −log10 of the molar value. Structures can show the parent of a compound that is named as a salt. Where two headings read alike, the source gives them in different places. Blank lines part the entries; values can stand above or below the compound they belong to.

Columns and labels:
[1] = Exposure (AUC) in the rat corneal angiogenesis study; type: in vivo; details: for AUC: female, CD, rat, in vivo
Procedure: (§1) Tables 2 through 6 below describe the results obtained in the rat corneal in vivo model of angiogenesis for (1) reference compound (free base) 1, (2) Compound A (free base), and (3) the hydrochloride salt of Compound A. A VEGF-induced rat corneal angiogenesis assay was performed using the following procedure: • In Life Aspects: Female CD rats weighing approximately 250 grams were randomized into one of six treatment groups. On the day of surgery the rats were temporarily anesthetized using isoflurane. A vertical incision was made on the midline of the cornea and a pocket was created to separate the connective tissue layers of the stroma. The distance between the apex of the pocket and the limbus was approximately 1.8 mm. A presoaked nylon filter disk was inserted to the apex of the pocket (in the case of the control treatment group, the disks were soaked in a buffer containing bovine serum albumin; in the remaining treatment groups, the disks were soaked in buffer containing bovine serum albumin plus human VEGF to induce angiogenesis). The different treatment groups were then dosed daily with either vehicle (Ora Plus™, a commercially available vehicle) or a designated amount of test compound formulated in vehicle. • Study Termination and Analysis: After seven days, the rats were euthanized and the implanted corneas photographed using a Nikon SV-3 Ophthalmic Slit Lamp. Numerical data were generated from the digital images using the Metamorph image analysis system (Universal Imaging). Three endpoints were analyzed on each corneal image: (1) disk placement distance from the limbus, (2) number of vessels intersecting a perpendicular line at the midpoint of the disk placement distance, and (3) blood vessel area, as determined by thresholding and automated pixel counting. Only the number of blood vessels is shown in the tables as this endpoint correlated well with the blood vessel area. • Statistical Analysis: Results were analyzed with the StatView statistical program using one-way ANOVA, followed by Fisher's least significant difference test. Data are presented as mean±SE and P<0.05 was considered significant. AUC and ED50 values were calculated using methods well known in the art.

[2] = Water absorption of the hydrous hydrochloride form; type: physicochemical; details: 90% relative humidity and 25° C.
From the text: The hydrochloride salt is formed by preparing a solution of Compound A free base in ethanol and adding hydrochloric acid in slight molar excess with stirring and optional heat. Spontaneous salt formation occurred both with and without the application of heating and cooling. The hydrochloride salt is known to exist in at least one anhydrous form, which has been confirmed by single-crystal X-ray analysis, and at least one hydrous form. The anhydrous form of the hydrochloride salt is crystalline and decomposes near 230° C. when heated at a rate of 10° C./minute. The hydrous form of Compound A hydrochloride has been obtained by suspending the anhydrous hydrochloride material in water or in dilute aqueous solutions of hydrochloric acid. The hydrous material is crystalline, can freely absorb up to 4 molar equivalents of water at 90% relative humidity and 25° C., and appears to fully dehydrate by 150° C. and decompose near 170° C. when heated at a rate of 10° C./minute. Both the anhydrous and hydrous forms of Compound A hydrochloride have unique X-ray powder diffraction patterns, the major peaks of which are described below: […]

[3] = tested on: VEGF-induced rat corneal angiogenesis; experiment: VEGF-induced rat corneal angiogenesis assay; type: in vivo; details: for Average # of Vessels: 7 days
Procedure: as §1

[4] = tested on: Rat Liver Microsome; experiment: Rat liver microsome clearance; type: in vitro ADME; details: rat liver microsomes
From the text: (§2) Table 7 provides additional information about the pharmacokinetic profiles of reference compound 1 and Compound A. The data contained in this table was obtained using methods well known in the art.

[5] = tested on: HUVEC; experiment: VEGF induced proliferation, HUVEC cell-based assay; details: Homo sapiens
[6] = tested on: liver microsomes; experiment: In vitro metabolite profiling in liver microsomes; type: in vitro ADME; details: 10 μM, liver microsomes 1 mg/mL (human, mouse, rat, monkey, rabbit, dog), NADPH, 37° C., 1 hr
Procedure: Incubation mixtures were prepared including [14C]-Compound A (10 μM, 0.5 μCi), liver microsomes at 1 mg/mL (human, mouse, rat, monkey, rabbit, dog), MgCl2 (3 mM), and potassium phosphate buffer (100 mM). The reaction was started by adding NADPH (1 mM) and incubations were carried out in a shaking water bath maintained at 37° C. for 1 hr. The reactions were stopped by adding 1 volume of ACN:MeOH 1:1 mixture; vortex mixed; centrifuged at 16000×g. The supernatants were analyzed on a reverse phase HPLC (Agilent 1100, Agilent systems, DE) in line with a radiomatic (β-ram, IN/US systems, FL) detector and an LTQ ion-trap mass spectrometer (ThermoFisher, San Jose, Calif.). HPLC separations were carried out on a phenyl-hexyl luna (150×4.6 mm, 5 μm, Phenomenex Inc) column maintained at 40° C. at a flow rate of 1 mL/min. A binary mobile phase consisting of 10 mM ammonium formate in H2O (solvent A) and 0.1% formic in MeOH (solvent B) was employed under the following gradient conditions: 0 to 2 min, 95% A; 2 to 10 min, 95 to 75% A; 10 to 40 min, 75 to 60% A; 40 to 60 min, 60 to 55% A; 60 to 77 min, 55 to 25% A; 77 to 78 min, 25 to 5% A; 78 to 83 min, 5% A; 83 to 84 min, 5 to 95% A; 84 to 90 min, 95% A. The flow post-column was split such that 80% went to radiomatic detector and the remaining 20% to MS. […]

[7] = Rat pharmacokinetic profile; details: in vivo; for clearance / Vd: intravenous; for Vd: read-out: Rat Volume of Distribution; for bioavailability / AUC(0-inf) / AUC(0-t): 2 mg/kg; for bioavailability: read-out: Rat P.O. (2 mpk) % F; for AUC(0-inf): read-out: Rat P.O. (2 mpk) AUC0-inf; for AUC(0-t): read-out: Rat P.O. (2 mpk) AUC0-t
From the text: as §2

[8] = tested on: Human Liver Microsome; experiment: Human liver microsome clearance; type: in vitro ADME; details: human liver microsomes
From the text: as §2

[9] = molecular target: cytochrome P450 3A4 (Homo sapiens, UniProt P08684); experiment: Incubation with recombinant human cytochrome P450 3A4; type: in vitro ADME; details: fortified with NADPH
From the text: The following compounds identified in Table 16 below were the significant metabolites formed in all species.

[10] = free base, review of Tables 2 and 3
[11] = iv, I.V., read-out: Rat I.V. T1/2 (converted)
[12] = po, 2 mpk, P.O., read-out: Rat P.O. T1/2 (converted)

Chain of cytochrome P450 3A4 (P08684 whole entry): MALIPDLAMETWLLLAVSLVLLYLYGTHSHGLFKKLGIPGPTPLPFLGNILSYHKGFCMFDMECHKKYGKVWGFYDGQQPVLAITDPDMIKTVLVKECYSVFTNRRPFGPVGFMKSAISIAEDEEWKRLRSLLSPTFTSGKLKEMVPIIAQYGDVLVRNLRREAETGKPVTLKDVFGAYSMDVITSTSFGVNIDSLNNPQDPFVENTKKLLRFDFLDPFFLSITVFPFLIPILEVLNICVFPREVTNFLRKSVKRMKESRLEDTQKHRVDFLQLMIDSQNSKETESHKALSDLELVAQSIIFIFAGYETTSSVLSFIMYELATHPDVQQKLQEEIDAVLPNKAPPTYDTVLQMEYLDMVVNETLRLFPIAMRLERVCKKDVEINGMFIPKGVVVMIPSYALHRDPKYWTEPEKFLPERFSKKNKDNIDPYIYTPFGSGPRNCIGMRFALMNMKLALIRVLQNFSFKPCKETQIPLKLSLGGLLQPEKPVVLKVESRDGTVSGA

- AUC ([1]; 0.01 mg/kg, Table 5, HCl salt Run #2, 0.01 mg/kg daily): 95.8 ng·h/mL
- AUC ([1]; 0.03 mg/kg, Table 4, HCl salt Run # 1, 0.03 mg/kg daily): 162 ng·h/mL
- AUC ([1]; 0.03 mg/kg, Table 5, HCl salt Run #2, 0.03 mg/kg daily): 272 ng·h/mL
- AUC ([1]; 0.1 mg/kg, Table 4, HCl salt Run # 1, 0.1 mg/kg daily): 460 ng·h/mL
- AUC ([1]; 0.1 mg/kg, Table 5, HCl salt Run #2, 0.1 mg/kg daily): 954 ng·h/mL
- AUC ([1]; 0.3 mg/kg, Table 4, HCl salt Run # 1, 0.3 mg/kg daily): 1190 ng·h/mL
- AUC ([1]; 0.3 mg/kg, Table 5, HCl salt Run #2, 0.3 mg/kg daily): 3900 ng·h/mL
- AUC ([1]; 1 mg/kg, Table 4, HCl salt Run # 1, 1.0 mg/kg daily): 3640 ng·h/mL
- AUC ([1]; oral, 0.01 mg/kg, Table 6, HCl salt Run #3, 0.01 mg/kg daily): 21.8 ng·h/mL
- AUC ([1]; oral, 0.03 mg/kg, Table 6, HCl salt Run #3, 0.03 mg/kg daily): 80.2 ng·h/mL
- AUC ([1]; oral, 0.1 mg/kg, Table 6, HCl salt Run #3, 0.1 mg/kg daily): 322 ng·h/mL
- AUC ([1]; oral, 0.3 mg/kg, Table 6, HCl salt Run #3, 0.3 mg/kg daily): 677 ng·h/mL
- water absorbed [2]: up to 4 molar equivalents of water
SMILES: COc1cc2nccc(Oc3ccc4c(c3)OCCN4C(=O)Nc3cc(C)on3)c2cc1OC [Compound A (HCl Salt)]
- ED50 ([3]; Rattus norvegicus, Table 4, HCl salt Run # 1, number of vessels, read-out: ED50): 0.04 mg/kg
- ED50 ([3]; Rattus norvegicus, Table 5, HCl salt Run #2, number of vessels, read-out: ED50): 0.15 mg/kg
- Average # of Vessels ([3]; Table 4, HCl salt Run # 1, VEGF disc + 0.03 mg/kg daily): 15.3
- Average # of Vessels ([3]; Table 4, HCl salt Run # 1, VEGF disc + 0.1 mg/kg daily): 9.3
- Average # of Vessels ([3]; Table 4, HCl salt Run # 1, VEGF disc + 0.3 mg/kg daily): 4.3
- Average # of Vessels ([3]; Table 4, HCl salt Run # 1, VEGF disc + 1.0 mg/kg daily): 0.4
- Average # of Vessels ([3]; Table 5, HCl salt Run #2, VEGF disc + 0.01 mg/kg daily): 28.9
- Average # of Vessels ([3]; Table 5, HCl salt Run #2, VEGF disc + 0.03 mg/kg daily): 25.5
- Average # of Vessels ([3]; Table 5, HCl salt Run #2, VEGF disc + 0.1 mg/kg daily): 18.0
- Average # of Vessels ([3]; Table 5, HCl salt Run #2, VEGF disc + 0.3 mg/kg daily): 7.3
- Average # of Vessels ([3]; Table 6, HCl salt Run #3, VEGF disc + 0.01 mg/kg daily): 28.4
- Average # of Vessels ([3]; Table 6, HCl salt Run #3, VEGF disc + 0.03 mg/kg daily): 32.0
- Average # of Vessels ([3]; Table 6, HCl salt Run #3, VEGF disc + 0.1 mg/kg daily): 15.4
- Average # of Vessels ([3]; Table 6, HCl salt Run #3, VEGF disc + 0.3 mg/kg daily): 4.8

- AUC at ED50 ([1]; Table 6, HCl salt Run #3): 338 ng·h/mL
- average AUC at the ED50 ([1]; average of HCl salt studies of Tables 4 and 6 and free base study of Table 3): 313 ng·h/mL
- AUC ([1]; oral, 0.03 mg/kg, Table 3, free base, 0.03 mg/kg daily): 109 ng·h/mL
- AUC ([1]; oral, 0.1 mg/kg, Table 3, free base, 0.1 mg/kg daily): 203 ng·h/mL
- AUC ([1]; oral, 0.3 mg/kg, Table 3, free base, 0.3 mg/kg daily): 730 ng·h/mL
- AUC ([1]; oral, 1 mg/kg, Table 3, free base, 1.0 mg/kg daily): 2370 ng·h/mL
- Rat Liver Microsome [4]: 45 µL/min/mg
- turnover in liver microsomes [6]: Substantial turnover
- clearance [7]: 6.67 mL/min/kg
- Vd [7]: 1 L/kg
- half-life [7, 11]: 126 min
- bioavailability ([7]; po, P.O., 2 mpk): 59%
- AUC(0-inf) ([7]; po, P.O., 2 mpk): 2810 ng·h/mL
- AUC(0-t) ([7]; po, P.O., 2 mpk): 2800 ng·h/mL
- half-life [7, 12]: 120 min
- Human Liver Microsome [8]: 17 µL/min/mg
- metabolites formed with recombinant human cytochrome P450 3A4 [9]: These same metabolites were also formed
SMILES: COc1cc2nccc(Oc3ccc4c(c3)OCCN4C(=O)Nc3cc(C)on3)c2cc1OC [Compound A, 7-((6,7-bis(methyloxy)-4-quinolinyl)oxy)-N-(5-methyl-3-isoxazolyl)-2,3-dihydro-4H-1,4-benzoxazine-4-carboxamide]
- pIC50 [5]: 8.70
- ED50 ([3]; Rattus norvegicus, Table 3, free base, number of vessels, read-out: ED50): 0.16 mg/kg
- ED50 ([3]; Rattus norvegicus, Table 6, HCl salt Run #3, number of vessels, read-out: ED50): 0.14 mg/kg
- Average # of Vessels ([3]; Table 3, free base, VEGF disc + 0.03 mg/kg daily): 24.5
- Average # of Vessels ([3]; Table 3, free base, VEGF disc + 0.1 mg/kg daily): 24.9
- Average # of Vessels ([3]; Table 3, free base, VEGF disc + 0.3 mg/kg daily): 5.4
- Average # of Vessels ([3]; Table 3, free base, VEGF disc + 1.0 mg/kg daily): 2.3
- ED50 [3, 10]: 0.16 mpk

- AUC ([1]; oral, 0.03 mg/kg, Table 2, free base, 0.03 mg/kg daily): 22.5 ng·h/mL
- AUC ([1]; oral, 0.1 mg/kg, Table 2, free base, 0.1 mg/kg daily): 68.5 ng·h/mL
- AUC ([1]; oral, 0.3 mg/kg, Table 2, free base, 0.3 mg/kg daily): 205 ng·h/mL
- Rat Liver Microsome [4]: 65 µL/min/mg
- clearance [7]: 13.3 mL/min/kg
- Vd [7]: 1 L/kg
- half-life [7, 11]: 284 min
- bioavailability ([7]; po, P.O., 2 mpk): 67%
- AUC(0-inf) ([7]; po, P.O., 2 mpk): 1710 ng·h/mL
- AUC(0-t) ([7]; po, P.O., 2 mpk): 1700 ng·h/mL
- half-life [7, 12]: 144 min
- Human Liver Microsome [8]: 29 µL/min/mg
SMILES: COc1cc2nccc(Oc3ccc4c(c3)OCCN4C(=O)Nc3ccon3)c2cc1OC [Reference Compound 1, reference compound]
- pIC50 [5]: 8.15
- ED50 ([3]; Rattus norvegicus, Table 2, free base, number of vessels, read-out: ED50): > 0.3 mg/kg
- Average # of Vessels ([3]; Table 2, free base, VEGF disc + 0.01 mg/kg daily): 22.0
- Average # of Vessels ([3]; Table 2, free base, VEGF disc + 0.03 mg/kg daily): 25.4
- Average # of Vessels ([3]; Table 2, free base, VEGF disc + 0.1 mg/kg daily): 19.3
- Average # of Vessels ([3]; Table 2, free base, VEGF disc + 0.3 mg/kg daily): 15.9
- ED50 [3, 10]: > 0.3 mpk
